Measured values as given in patent US12559529B2, “NPY2 receptor agonists” (Boehringer Ingelheim International GmbH, priority 2019, dated 2026).
pKi: −log10 of the molar value. *1 amine or outer side, *2 acyl side, *3 side chain or, on linkers, in order; H or OH if unused. Where a SMILES comes first, the peptide text is derived from it. Side-chain parts run from the residue outwards. The star is where a group is joined. C18 diacid = O=C(O)CCCCCCCCCCCCCCCCC(=O)*; γGlu = O=C(O)[C@H](CCC(=O)[*:2])N[*:1]; Isovaleryl = CC(C)CC(=O)*; AEEA = NCCOCCOCC(=O)O

Assays:
[1] = molecular target: T1, Human Neuropeptide Y2 Receptor (Homo sapiens, UniProt P49146); assay: Radioligand binding competition assay (RLB); details: Table 3; human 125I-PYY (1-36) 0.02 nM, Y2 receptor membranes; read-out: Ki
T1 construct: purchased CHEMICON HTS066M
T1 sequence (P49146 1-381): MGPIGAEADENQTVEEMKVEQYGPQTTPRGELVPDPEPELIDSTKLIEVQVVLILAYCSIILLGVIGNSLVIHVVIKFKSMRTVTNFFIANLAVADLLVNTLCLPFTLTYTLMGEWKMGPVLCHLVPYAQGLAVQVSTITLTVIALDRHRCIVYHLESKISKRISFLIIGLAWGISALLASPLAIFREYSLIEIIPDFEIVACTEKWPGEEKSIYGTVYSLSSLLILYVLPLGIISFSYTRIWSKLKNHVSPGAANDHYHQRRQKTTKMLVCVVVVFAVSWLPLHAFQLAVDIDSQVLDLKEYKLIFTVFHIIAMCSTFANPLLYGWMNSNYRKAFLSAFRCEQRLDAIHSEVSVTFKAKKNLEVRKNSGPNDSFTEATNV
Summary of the method: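 Filtration format; Y2R membrane prep 0.5 μg/well; buffer 50 mM HEPES/5 mM MgCl2/1 mM CaCl2/0.2% ovalbumin pH 7.4; 2 h RT, shaking. Harvest on PEI-soaked GF/C, ice-cold HEPES/500 mM NaCl washes, scintillation count. IC50 by nonlinear fit.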

normal NMRI mice = assay: Effect on acute food intake in normal NMRI mice; format: in vivo; details: male NMRI mice, 10 nmol/kg subcutaneously once
Summary of the method: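 Male NMRI mice acclimatized in an HM-2 real-time food intake monitoring system, fasted 6 h before dark phase. Single subcutaneous dose of 10 nmol/kg peptide given 1 h before dark; n=7-8. Food intake expressed as % of vehicle group (50 mM phosphate pH7, 5% Mannitol).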

For `CC[C@H](C)[C@H](NC(=O)[C@H](CCC(=O)O)NC(=O)[C@H](CCC(=O)O)NC(=O)[C@H](CCC(=O)O)NC(=O)[C@H](CO)NC(=O)[C@H](C)NC(=O)[C@H](CC(=O)O)NC(=O)[C@H](CCC(=O)O)NC(=O)[C@H](CCC(=O)O)NC(=O)[C@@H]1CCCN1C(=O)[C@H](CCCCNC(=O)COCCOCCNC(=O)COCCOCCNC(=O)CC[C@H](NC(=O)CCCCCCCCCCCCCCCCC(=O)O)C(=O)O)NC(=O)[C@H](CCC(=O)O)NC(=O)[C@@H]1CCCN1C(=O)[C@H](C)NC(=O)CC(C)C)C(=O)N[C@@H](CCC(N)=O)C(=O)N[C@@H](CCCNC(=N)N)C(=O)N[C@@H](Cc1ccc(O)cc1)C(=O)N[C@@H](Cc1ccc(O)cc1)C(=O)N[C@H](C(=O)N[C@@H](CO)C(=O)N[C@@H](CC(C)C)C(=O)N[C@@H](CCCNC(=N)N)C(=O)N[C@@H](Cc1c[nH]cn1)C(=O)N[C@@H](Cc1ccc(O)cc1)C(=O)N[C@@H](Cc1ccc(O)cc1)C(=O)N[C@@H](CC(N)=O)C(=O)N[C@@H](Cc1c[nH]c2ccccc12)C(=O)N[C@@H](CC(C)C)C(=O)N[C@H](C(=O)N[C@@H](CCCNC(=N)N)C(=O)N[C@@H](CCC(N)=O)C(=O)N[C@@H](CCCNC(=N)N)C(=O)N[C@@H](Cc1ccc(O)cc1)C(N)=O)[C@@H](C)O)C(C)C` [Compound 193, N{alpha-4}-(3-methylbutanoyl)-N{epsilon-7}-[2-(2-{2-[2-(2-{2-[(4S)-4-carboxy-4-(17-carboxyheptadecanamido)butanamido]ethoxy}ethoxy)acetamido]ethoxy}ethoxy)acetamido]-[4A,7K,9E,14E,17I,18Q,22V,28Y,30W,31L]hPYY (4-36)], the pKi [1] was 8.42 and the “Acute Food Intake 24 h [% vehicle]” value (normal NMRI mice) was 57 % vehicle.
For `CC(C)CC(=O)N[C@@H](C)C(=O)N1CCC[C@H]1C(=O)N[C@@H](CCC(=O)O)C(=O)N[C@@H](CCCCNC(=O)COCCOCCNC(=O)COCCOCCNC(=O)CC[C@H](NC(=O)CCCCCCCCCCCCCCCCC(=O)O)C(=O)O)C(=O)N1CCC[C@H]1C(=O)N[C@@H](CCC(=O)O)C(=O)N[C@@H](CCC(=O)O)C(=O)N[C@@H](CC(=O)O)C(=O)N[C@@H](C)C(=O)N[C@@H](CO)C(=O)N1CCC[C@H]1C(=O)N[C@@H](CCC(=O)O)C(=O)N[C@@H](C)C(=O)N[C@@H](CC(C)C)C(=O)N[C@@H](CCC(N)=O)C(=O)N[C@@H](CCCNC(=N)N)C(=O)N[C@@H](Cc1ccc(O)cc1)C(=O)N[C@@H](Cc1ccc(O)cc1)C(=O)N[C@H](C(=O)N[C@@H](CCC(=O)O)C(=O)N[C@@H](CC(C)C)C(=O)N[C@@H](CCCNC(=N)N)C(=O)N[C@@H](Cc1c[nH]cn1)C(=O)N[C@@H](Cc1ccc(O)cc1)C(=O)N[C@@H](Cc1ccc(O)cc1)C(=O)N[C@@H](CC(N)=O)C(=O)N[C@@H](Cc1c[nH]c2ccccc12)C(=O)N[C@@H](CC(C)C)C(=O)N[C@H](C(=O)N[C@@H](CCCNC(=N)N)C(=O)N[C@@H](CCC(N)=O)C(=O)N[C@@H](CCCNC(=N)N)C(=O)N[C@@H](Cc1ccc(O)cc1)C(N)=O)[C@@H](C)O)C(C)C` [Compound 195, N{alpha-4}-(3-methylbutanoyl)-N{epsilon-7}-[2-(2-{2-[2-(2-{2-[(4S)-4-carboxy-4-(17-carboxyheptadecanamido)butanamido]ethoxy}ethoxy)acetamido]ethoxy}ethoxy)acetamido]-[4A,7K,9E,16A,18Q,22V,23E,28Y,30W,31L]hPYY (4-36)], the pKi [1] was 9.12 and the “Acute Food Intake 24 h [% vehicle]” value (normal NMRI mice) was 50 % vehicle.
`CC(C)CC(=O)N[C@@H](C)C(=O)N1CCC[C@H]1C(=O)N[C@@H](CCC(=O)O)C(=O)N[C@@H](CCCCNC(=O)COCCOCCNC(=O)COCCOCCNC(=O)CC[C@H](NC(=O)CCCCCCCCCCCCCCCCC(=O)O)C(=O)O)C(=O)N1CCC[C@H]1C(=O)N[C@@H](CCC(=O)O)C(=O)N[C@@H](CCC(=O)O)C(=O)N[C@@H](CC(=O)O)C(=O)N[C@@H](C)C(=O)N[C@@H](C)C(=O)N1CCC[C@H]1C(=O)N[C@@H](CCC(=O)O)C(=O)N[C@@H](CCC(=O)O)C(=O)N[C@@H](CC(C)C)C(=O)N[C@@H](CCC(N)=O)C(=O)N[C@@H](CCCCN)C(=O)N[C@@H](Cc1ccc(O)cc1)C(=O)N[C@@H](Cc1ccc(O)cc1)C(=O)N[C@H](C(=O)N[C@@H](CO)C(=O)N[C@@H](CC(C)C)C(=O)N[C@@H](CCCNC(=N)N)C(=O)N[C@@H](Cc1c[nH]cn1)C(=O)N[C@@H](Cc1ccc(O)cc1)C(=O)N[C@@H](Cc1ccc(O)cc1)C(=O)N[C@@H](CC(N)=O)C(=O)N[C@@H](Cc1c[nH]c2ccccc12)C(=O)N[C@@H](CC(C)C)C(=O)N[C@H](C(=O)N[C@@H](CCCNC(=N)N)C(=O)N[C@@H](CCC(N)=O)C(=O)N[C@@H](CCCNC(=N)N)C(=O)N[C@@H](Cc1ccc(O)cc1)C(N)=O)[C@@H](C)O)C(C)C` [Compound 202, N{alpha-4}-(3-methylbutanoyl)-N{epsilon-7}-[2-(2-{2-[2-(2-{2-[(4S)-4-carboxy-4-(17-carboxyheptadecanamido)butanamido]ethoxy}ethoxy)acetamido]ethoxy}ethoxy)acetamido]-[4A,7K,9E,13A,18Q,19K,22V,28Y,30W,31L]hPYY (4-36)] was tested, and the pKi [1] was 9.22 and the “Acute Food Intake 24 h [% vehicle]” value (normal NMRI mice) was 48 % vehicle.
With `CC(C)CC(=O)N[C@@H](C)C(=O)N1CCC[C@H]1C(=O)N[C@@H](CCC(=O)O)C(=O)N[C@@H](CCCCNC(=O)COCCOCCNC(=O)COCCOCCNC(=O)CC[C@H](NC(=O)CCCCCCCCCCCCCCCCC(=O)O)C(=O)O)C(=O)N1CCC[C@H]1C(=O)N[C@@H](CCC(=O)O)C(=O)N[C@@H](CCC(=O)O)C(=O)N[C@@H](CCC(=O)O)C(=O)N[C@@H](C)C(=O)N[C@@H](CO)C(=O)N1CCC[C@H]1C(=O)N[C@@H](CCC(=O)O)C(=O)N[C@@H](CCC(=O)O)C(=O)N[C@@H](CC(C)C)C(=O)N[C@@H](CCC(N)=O)C(=O)N[C@@H](CCCCN)C(=O)N[C@@H](Cc1ccc(O)cc1)C(=O)N[C@@H](Cc1ccc(O)cc1)C(=O)N[C@H](C(=O)N[C@@H](CO)C(=O)N[C@@H](CC(C)C)C(=O)N[C@@H](CCCNC(=N)N)C(=O)N[C@@H](Cc1c[nH]cn1)C(=O)N[C@@H](Cc1ccc(O)cc1)C(=O)N[C@@H](Cc1ccc(O)cc1)C(=O)N[C@@H](CC(N)=O)C(=O)N[C@@H](Cc1c[nH]c2ccccc12)C(=O)N[C@@H](CC(C)C)C(=O)N[C@H](C(=O)N[C@@H](CCCNC(=N)N)C(=O)N[C@@H](CCC(N)=O)C(=O)N[C@@H](CCCNC(=N)N)C(=O)N[C@@H](Cc1ccc(O)cc1)C(N)=O)[C@@H](C)O)C(C)C` [Compound 205, N{alpha-4}-(3-methylbutanoyl)-N{epsilon-7}-[2-(2-{2-[2-(2-{2-[(4S)-4-carboxy-4-(17-carboxyheptadecanamido)butanamido]ethoxy}ethoxy)acetamido]ethoxy}ethoxy)acetamido]-[4A,7K,9E,11E,18Q,19K,22V,28Y,30W,31L]hPYY (4-36)] (Isovaleryl-APEK([AEEA-AEEA-γGlu-C18 diacid])PEEEASPEELQKYYVSLRHYYNWLTRQRY-NH2) the pKi [1] was 8.72 and the “Acute Food Intake 24 h [% vehicle]” value (normal NMRI mice) was 65 % vehicle.
`CC(C)CC(=O)N[C@@H](C)C(=O)N1CCC[C@H]1C(=O)N[C@@H](CCC(=O)O)C(=O)N[C@@H](CCCCNC(=O)COCCOCCNC(=O)COCCOCCNC(=O)CC[C@H](NC(=O)CCCCCCCCCCCCCCCCC(=O)O)C(=O)O)C(=O)N1CCC[C@H]1C(=O)N[C@@H](CCC(=O)O)C(=O)N[C@@H](CCC(=O)O)C(=O)N[C@@H](CC(=O)O)C(=O)N[C@@H](C)C(=O)N[C@@H](CO)C(=O)N[C@@H](CCC(=O)O)C(=O)N[C@@H](CCC(=O)O)C(=O)N[C@@H](CCC(=O)O)C(=O)N[C@H](C(=O)N[C@@H](CCC(N)=O)C(=O)N[C@@H](CCCNC(=N)N)C(=O)N[C@@H](Cc1ccc(O)cc1)C(=O)N[C@@H](Cc1ccc(O)cc1)C(=O)N[C@H](C(=O)N[C@@H](CO)C(=O)N[C@@H](CC(C)C)C(=O)N[C@@H](CCCNC(=N)N)C(=O)N[C@@H](Cc1c[nH]cn1)C(=O)N[C@@H](Cc1ccc(O)cc1)C(=O)N[C@@H](Cc1ccc(O)cc1)C(=O)N[C@@H](CC(N)=O)C(=O)N[C@@H](Cc1c[nH]c2ccccc12)C(=O)N[C@@H](CC(C)C)C(=O)N[C@H](C(=O)N[C@@H](CCCNC(=N)N)C(=O)N[C@@H](CCC(N)=O)C(=O)N[C@@H](CCCNC(=N)N)C(=O)N[C@@H](Cc1ccc(O)cc1)C(N)=O)[C@@H](C)O)C(C)C)[C@@H](C)O` [Compound 208, N{alpha-4}-(3-methylbutanoyl)-N{epsilon-7}-[2-(2-{2-[2-(2-{2-[(4S)-4-carboxy-4-(17-carboxyheptadecanamido)butanamido]ethoxy}ethoxy)acetamido]ethoxy}ethoxy)acetamido]-[4A,7K,9E,14E,17T,18Q,22V,28Y,30W,31L]hPYY (4-36)] was tested, and the pKi [1] was 8.42 and the “Acute Food Intake 24 h [% vehicle]” value (normal NMRI mice) was 61 % vehicle.
